# According to paper PMC7653765 (BMC Complementary Medicine and Therapies, 2020):
# Like-named read-outs stand apart in the source and are kept apart here.
# System: 3 T3-L1 adipocytes
# Assay: Adipocyte glucose uptake test
# Assay type: cell-based, mouse
# Procedure: The 3 T3-L1 mouse embryonic fibroblasts were cultured for induction of adipogenesis, and […] 3 T3-L1 adipocytes were plated for glucose uptake. Krebs-Ringer-Phosphate-HEPES (KRPH) buffer was used to prepare 10-point 3-fold gradient diluted samples. After starvation, the adipocytes were rinsed with KRPH buffer. Ninety μL of gradient-diluted samples of different concentrations were added to each well with high- and low-signal control wells and incubated in a CO2 incubator for 30 min. Add 10 μL/well of KRPH buffer containing 0.25 μCi1- [3H] -deoxyglucose and 50 μM 2-deoxyglucose and incubate in a CO2 incubator for 20 min. Wash the cells with DPBS containing 10 mM glucose at 4 °C. Lysate fat cells with sodium hydroxide solution, transfer to scintillation tube, add scintillation fluid, and count with TriCarb.
# [1] = mean ± SEM of 3 repeats, read-out: EC50, fat cell glucose uptake, Mean ± SEM
# [2] = read-out: EC50, fat cell glucose uptake, N = 1, replicate N = 1, 3 T3-L1 adipocytes, 30 min sample, 20 min [3H]-deoxyglucose
# [3] = read-out: EC50, fat cell glucose uptake, N = 2, replicate N = 2
# [4] = read-out: EC50, fat cell glucose uptake, N = 3, replicate N = 3
EC50 [1] [nM],EC50 [2] [nM],EC50 [3] [nM],EC50 [4] [nM],Substance
3.7 ± 0.5,2.5,5.3,3,"S-Insulin: recombinant human-derived insulin from Sigma, a regular insulin, standard control"
1.8 ± 0.2,0.9,1.7,2.2,"H-Insulin: recombinant human insulin injection obtained from Lilly, a regular insulin"
